According to patent publication US20230099344A1, “COMPOUNDS AND METHODS FOR THE TARGETED DEGRADATION OF IRAK-4” (Arvinas Operations, Inc., priority 2021, published 2023):
pIC50: −log10 of the molar value.

Tests used:
Assay type in all cases: cell-based
IL6 [1] = assay: LPS stimulated IL6 inhibition assay in PBMC; conditions: Homo sapiens, PBMC, 24 h, human PBMCs, LPS stimulation, compound overnight, IL6 by MSD after 24 hrs; for Dmax: read-out: LPS Stim IL6 inhibition Dmax; for pIC50: read-out: LPS stim IL6 inhibition IC50
Method in brief: (§1)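 Primary human PBMCs plated at 2.0×10^6 cells/mL are incubated with compound overnight. Stimulation follows using the donor's EC50 concentration of agonist. MSD detects secreted IL6/IL8 at 24 hrs.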

IRAK-4 = target: T1, IRAK-4 (Homo sapiens, UniProt Q9NWZ3); assay: IRAK-4 ELISA, PBMC degradation; parameters: endogenous in cells; host or cells: PBMC; conditions: treated overnight
T1 sequence (Q9NWZ3 1-460): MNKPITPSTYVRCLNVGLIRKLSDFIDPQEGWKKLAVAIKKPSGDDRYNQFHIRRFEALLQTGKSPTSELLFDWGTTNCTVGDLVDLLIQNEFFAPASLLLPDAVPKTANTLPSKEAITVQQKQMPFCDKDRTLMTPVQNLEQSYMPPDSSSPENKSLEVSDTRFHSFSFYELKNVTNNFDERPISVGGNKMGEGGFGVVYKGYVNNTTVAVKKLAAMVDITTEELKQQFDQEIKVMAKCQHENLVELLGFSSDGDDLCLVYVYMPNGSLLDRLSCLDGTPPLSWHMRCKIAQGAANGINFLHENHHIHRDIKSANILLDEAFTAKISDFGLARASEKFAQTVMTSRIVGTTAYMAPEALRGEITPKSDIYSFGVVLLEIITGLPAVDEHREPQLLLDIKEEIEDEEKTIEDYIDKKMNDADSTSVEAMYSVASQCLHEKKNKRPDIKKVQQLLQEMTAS
Method in brief: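 OCI-Ly10 cells (1×10^6/ml) or PBMC (2×10^6/ml) treated with compound on the day of seeding and incubated overnight. IRAK-4 protein remaining in cell lysates quantified by sandwich ELISA.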

IL6 [2] = assay: R848 stimulated IL6 inhibition assay in PBMC; conditions: PBMC, human PBMCs, R848 stimulation, compound overnight, IL6 by MSD after 24 hrs; for Dmax: Homo sapiens, 24 h, read-out: R848 stim IL6 inhibition Dmax; for pIC50: read-out: R848 stim IL6 inhibition IC50
Method in brief: as §1

SMILES | Dmax (IL6 [1]) [%] | pIC50 (IL6 [1]) | DC50 (IRAK-4) [µM] | Dmax (IRAK-4) [%] | PBMC DC90 (IRAK-4) | Dmax (IL6 [2]) [%] | pIC50 (IL6 [2])
COc1c(N2CC(F)(CN3CCC(n4cc5cc(NC(=O)c6cnn7cccnc67)c(OCC6CC6)cc5n4)CC3)C2)ccc2c1C(=O)N(C1CCC(=O)NC1=O)C2=O (stereo not drawn) [Example 246] | 70 to 80 | > 8.00 | 0.005 to 0.01 | < 70 | B (B represents a DC90 value ≥10.0 nM and <25.0 nM) | ≥ 90 | > 8.00
O=C1CCC(N2C(=O)c3ccc(N4CCCC5(CN(CCN6CCC(n7cc8cc(NC(=O)c9cnn%10cccnc9%10)c(OCC9CC9)cc8n7)CC6)C5)C4)cc3C2=O)C(=O)N1 (stereo not drawn) [Example 248] | < 70 | 7.30 to 8.00 | 0.001 to 0.005 | < 70 | A (A represents a DC90 value <10.0 nM) | ≥ 90 | 7.30 to 8.00
O=C1CCC(N2C(=O)c3ccc(N4CCC5(CC4)CN(CCN4CCC(n6cc7cc(NC(=O)c8cnn9cccnc89)c(OCC8CC8)cc7n6)CC4)C5)cc3C2=O)C(=O)N1 (stereo not drawn) [Example 249] | < 70 | ≤ 7.00 | 0.001 to 0.005 | ≥ 90 | A (A represents a DC90 value <10.0 nM) | 80 to 90 | 7.30 to 8.00
O=C1CCC(N2Cc3c(ccc(N4CC(F)(CN5CCC(n6cc7cc(NC(=O)c8cnn9cccnc89)c(OCC8CC8)cc7n6)CC5)C4)c3F)C2=O)C(=O)N1 (stereo not drawn) [Example 250] | < 70 | ≤ 7.00 | 0.001 to 0.005 | 80 to 90 | B (B represents a DC90 value ≥10.0 nM and <25.0 nM) | 80 to 90 | 7.30 to 8.00
O=C1CCC(N2Cc3c(ccc(N4CC(F)(CN5CCC(n6cc7cc(NC(=O)c8cnn9cccnc89)c(OCC(F)F)cc7n6)CC5)C4)c3F)C2=O)C(=O)N1 (stereo not drawn) [Example 251] | < 70 | 7.00 to 7.30 | 0.001 to 0.005 | 80 to 90 | A (A represents a DC90 value <10.0 nM) | 80 to 90 | 7.30 to 8.00
O=C1CC[C@@H](N2C(=O)c3ccc(N4CC(F)(CN5CCC(n6cc7cc(NC(=O)c8cnn9cccnc89)c(OCC8CC8)cc7n6)CC5)C4)cc3C2=O)C(=O)N1 [Example 253] | < 70 | 7.30 to 8.00 | 0.001 to 0.005 | ≥ 90 | B (B represents a DC90 value ≥10.0 nM and <25.0 nM) | ≥ 90 | 7.30 to 8.00
O=C1CC[C@H](N2C(=O)c3ccc(N4CC(F)(CN5CCC(n6cc7cc(NC(=O)c8cnn9cccnc89)c(OCC8CC8)cc7n6)CC5)C4)cc3C2=O)C(=O)N1 [Example 254] | < 70 | 7.00 to 7.30 | 0.001 to 0.005 | ≥ 90 | A (A represents a DC90 value <10.0 nM) | ≥ 90 | 7.30 to 8.00
O=C1CCC(N2C(=O)c3ccc(N4CC(F)(CN5CCC(n6cc7cc(NC(=O)c8cnn9cc(Cl)cnc89)c(OCC8CC8)cc7n6)CC5)C4)cc3C2=O)C(=O)N1 (stereo not drawn) [Example 255] | 70 to 80 | 7.00 to 7.30 | ≥ 0.01 | ≥ 90 | D (D represents a DC90 value ≥50 nM) | ≥ 90 | 7.00 to 7.30
CC(C)(C1CN(c2ccc3c(c2)C(=O)N(C2CCC(=O)NC2=O)C3=O)C1)N1CCC(n2cc3cc(NC(=O)c4cnn5cccnc45)c(OCC4CC4)cc3n2)CC1 (stereo not drawn) [Example 256] | < 70 | 7.30 to 8.00 | < 0.001 | ≥ 90 | A (A represents a DC90 value <10.0 nM) | 80 to 90 | 7.30 to 8.00
O=C1CCC(N2C(=O)c3ccc(N4CCC(O)(CN5CCC(n6cc7cc(NC(=O)c8cnn9cccnc89)c(OCC8CC8)cc7n6)CC5)CC4)cc3C2=O)C(=O)N1 (stereo not drawn) [Example 257] | 70 to 80 | 7.30 to 8.00 | 0.001 to 0.005 | ≥ 90 | A (A represents a DC90 value <10.0 nM) | ≥ 90 | 7.30 to 8.00
O=C1CCC(N2Cc3cc(N4CCC(O)(CN5CCC(n6cc7cc(NC(=O)c8cnn9cccnc89)c(OCC8CC8)cc7n6)CC5)CC4)ccc3C2=O)C(=O)N1 (stereo not drawn) [Example 258] | 70 to 80 | > 8.00 | < 0.001 | 80 to 90 | A (A represents a DC90 value <10.0 nM) | ≥ 90 | 7.30 to 8.00
O=C1CCC(N2C(=O)c3ccc(N4CCC5(CC4)CC(CN4CCC(n6cc7cc(NC(=O)c8cnn9cccnc89)c(OCC8CC8)cc7n6)CC4)C5)cc3C2=O)C(=O)N1 (stereo not drawn) [Example 261] | 80 to 90 | 7.30 to 8.00 | 0.001 to 0.005 | ≥ 90 | A (A represents a DC90 value <10.0 nM) | 80 to 90 | 7.00 to 7.30
O=C1CCC(N2C(=O)c3ccc(N4CC(F)(CN5CCC(n6cc7cc(NC(=O)c8cnn9cccnc89)c(OCC8CC8)cc7n6)CC5)C4)c(F)c3C2=O)C(=O)N1 (stereo not drawn) [Example 262] | < 70 | 7.00 to 7.30 | 0.001 to 0.005 | 70 to 80 | A (A represents a DC90 value <10.0 nM) | ≥ 90 | 7.30 to 8.00
CN1CC(Oc2cc3nn(C4CCN(CC5(F)CN(c6ccc7c(c6)C(=O)N(C6CCC(=O)NC6=O)C7=O)C5)CC4)cc3cc2NC(=O)c2cnn3cccnc23)C1 (stereo not drawn) [Example 263] | < 70 | > 8.00 | ≥ 0.01 | ≥ 90 | A (A represents a DC90 value <10.0 nM) | ≥ 90 | 7.30 to 8.00
O=C1CCC(N2Cc3c(F)cc(N4CC(F)(CN5CCC(n6cc7cc(NC(=O)c8cnn9cccnc89)c(OCC8CC8)cc7n6)CC5)C4)cc3C2=O)C(=O)N1 (stereo not drawn) [Example 268, N-[6-(cyclopropylmethoxy)-2-[1-({1-[2-(2,6-dioxopiperidin-3-yl)-7-fluoro-3-oxo-2,3-dihydro-1H-isoindol-5-yl]-3-fluoroazetidin-3-yl}methyl)piperidin-4-yl]-2H-indazol-5-yl]pyrazolo[1,5-a]pyrimidine-3-carboxamide] | 70 to 80 | 7.30 to 8.00 | < 0.001 | ≥ 90 | A (A represents a DC90 value <10.0 nM) | ≥ 90 | 7.30 to 8.00
O=C1CCC(N2Cc3cc(F)c(N4CC(F)(CN5CCC(n6cc7cc(NC(=O)c8cnn9cccnc89)c(OCC8CC8)cc7n6)CC5)C4)cc3C2=O)C(=O)N1 (stereo not drawn) [Example 269, N-[6-(cyclopropylmethoxy)-2-[1-({1-[2-(2,6-dioxopiperidin-3-yl)-6-fluoro-3-oxo-2,3-dihydro-1H-isoindol-5-yl]-3-fluoroazetidin-3-yl}methyl)piperidin-4-yl]-2H-indazol-5-yl]pyrazolo[1,5-a]pyrimidine-3-carboxamide] | 80 to 90 | 7.30 to 8.00 | 0.001 to 0.005 | 80 to 90 | A (A represents a DC90 value <10.0 nM) | ≥ 90 | 7.30 to 8.00
CC(C)Oc1cc2c(cc1NC(=O)c1cnn3cccnc13)CN(C1CCN(CC3CCN(c4ccc(F)c(C(=O)NC5CCC(=O)NC5=O)c4)CC3)CC1)C2=O (stereo not drawn) [Example 303] | 70 to 80 | 7.30 to 8.00 | 0.005 to 0.01 | 80 to 90 | C (C represents a DC90 value ≥25.0 nM and <50 nM) | ≥ 90 | 7.30 to 8.00
O=C1CCC(NC(=O)c2ccc(N3CCC(CN4CCC(N5Cc6cc(NC(=O)c7cnn8cccnc78)c(OCC(F)F)cc6C5=O)CC4)CC3)cc2F)C(=O)N1 (stereo not drawn) [Example 305] | < 70 | 7.30 to 8.00 | 0.005 to 0.01 | 80 to 90 | C (C represents a DC90 value ≥25.0 nM and <50 nM) | < 70 | 7.00 to 7.30
O=C1CCC(NC(=O)c2cc(N3CC(CN4CCC(n5cc6cc(NC(=O)c7cnn8cccnc78)c(OCC7CC7)cc6n5)CC4)C3)ccc2F)C(=O)N1 (stereo not drawn) [Example 306] | 70 to 80 | ≤ 7.00 | ≥ 0.01 | 70 to 80 | D (D represents a DC90 value ≥50 nM) | ≥ 90 | ≤ 7.00
CC(C)Oc1cc2nn(C3CCN(CC4CN(c5ccc(F)c(C(=O)NC6CCC(=O)NC6=O)c5)C4)CC3)cc2cc1NC(=O)c1cnn2cccnc12 (stereo not drawn) [Example 307] | – | ≤ 7.00 | ≥ 0.01 | – | D (D represents a DC90 value ≥50 nM) | 80 to 90 | ≤ 7.00
